{"source": "patent US20260069722A1", "about": "“COMPOSITION FOR FLUORESCENT LABELING, FLUORESCENT PROBE, INJECTION AGENT, SYRINGE FILLING, MEDICAL APPARATUS, MEDICAL FIBER MATERIAL, METHOD FOR PRODUCING COMPOSITION FOR FLUORESCENT LABELING, AND METHOD FOR PRODUCING MEDICAL FIBER MATERIAL” (VITA CORPORATION, priority 2022, published 2026)", "assay": "mixing and kneading of ICG pigment with resin, compression molding", "assay_type": "physicochemical", "details": "pigment (ICG in glycerol) 1 to 7 phr kneaded with PP, PVC, LDPE, EVA, TPU at 140 to 170 degrees Celsius", "protocol": "Pigment (ICG plus solvent) was mixed and kneaded with various types of resin, and then it was verified whether or not a sheet could be manufactured by compression molding.\nAs the various types of resin, five types were prepared, which include polypropylene (PP), polyvinyl chloride (PVC), low-density polyethylene (LDPE), ethylene-vinyl acetate copolymer resin (EVA), and thermoplastic polyurethane (TPU). As the pigment, viscous liquid was used in which […] 25 mg of ICG were mixed and dissolved with 10 ml of glycerol.\nIn addition, four patterns, i.e., 1 phr, 3 phr, 5 phr, and 7 phr of the above pigment were prepared. Note that phr is abbreviation of per hundred resin, which is a unit expressing a ratio of pigment mixed in resin whose weight is 100. For instance, if A g of pigment is in 100 g of resin, the pigment ratio can be said to be A (phr).\nThe resin was charged into a mixer that had been preheated, and was kneaded until it was plasticized. As the above mixer, Laboplast mill 4 M150 manufactured by Toyo Seiki Seisaku-sho, Ltd. was used. Note that “Laboplast mill” is a registered trademark of Toyo Seiki Seisaku-sho, Ltd. This step was performed for each resin prepared in advance. Mixing and kneading was performed for five minutes at temperature set for each resin. […]", "data": [{"smiles": "CC1(C)C(/C=C/C=C/C=C/C=C2\\N(CCCCS(=O)(=O)[O-])c3ccc4ccccc4c3C2(C)C)=[N+](CCCCS(=O)(=O)[O-])c2ccc3ccccc3c21.[Na+]", "note": "[ICG, indocyanine green]", "values": [{"measurement": "thermal degradation due to mixing and kneading", "value": "thermal degradation of ICG due to mixing and kneading can be suppressed"}]}]}
